Experimental data as given in BindingDB's records for doi:10.1016/j.bioorg.2016.11.007 (University of Karachi, 2017).

Experiments:
Thymidine phosphorylase [1] = target: T1, Thymidine phosphorylase (Escherichia coli (strain K12), UniProt P07650); test: Thymidine Phosphorylase Inhibition Assay; conditions: 30 °C
Protocol: TP inhibition assay was performed spectrophotometrically in 96-well plate. […] The total reaction volume was 200 μL. 20 μL of TP enzyme (0.058 unit/well) was incubated with 10 μL of test compounds (0.5 mM) for 10 min at 30 C. […] Every experiment was run in triplicate.

Thymidine phosphorylase [2] = target: T1, Thymidine phosphorylase; test: Kinetic Assay; conditions: 30 °C

T1 sequence (P07650 whole entry): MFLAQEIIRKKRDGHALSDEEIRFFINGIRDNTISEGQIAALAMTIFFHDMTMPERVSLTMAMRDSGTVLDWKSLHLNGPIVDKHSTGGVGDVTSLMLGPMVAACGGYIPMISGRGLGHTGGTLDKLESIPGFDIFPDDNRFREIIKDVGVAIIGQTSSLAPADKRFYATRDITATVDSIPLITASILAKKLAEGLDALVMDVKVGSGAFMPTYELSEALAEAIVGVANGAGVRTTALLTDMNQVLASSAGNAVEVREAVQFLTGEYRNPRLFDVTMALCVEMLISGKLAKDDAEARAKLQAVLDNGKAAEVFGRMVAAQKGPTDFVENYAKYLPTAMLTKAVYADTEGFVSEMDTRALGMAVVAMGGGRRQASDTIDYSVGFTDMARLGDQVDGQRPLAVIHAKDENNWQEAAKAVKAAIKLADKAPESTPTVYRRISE

Row | IC50 (Thymidine phosphorylase [1]) | Ki (Thymidine phosphorylase [2]) | Structure (SMILES)
1 | 7.5 µM | 7.81 µM | Cc1cn([C@H]2C[C@H](OC(=O)c3ccc(Br)cc3)[C@@H](COC(=O)c3ccc(Br)cc3)O2)c(=O)[nH]c1=O [5'-O-(4''-Bromobenzoyl)-thymidine-3'-O-4''-bromobenzoate (14)]
2 | 33.3 µM | 11.4 µM | Cc1cn([C@H]2C[C@H](O)[C@@H](COC(=O)c3cccc(Br)c3)O2)c(=O)[nH]c1=O [5'-O-(3''-Bromobenzoyl)-thymidine (15)]
3 | 90 µM | – | COc1ccccc1C(=O)OC[C@H]1O[C@@H](n2cc(C)c(=O)[nH]c2=O)C[C@@H]1O [5'-O-(2''-Methoxybenzoyl)-thymidine (11)]
4 | 146 µM | – | Cc1cn([C@H]2C[C@H](OC(=O)c3ccc(Cl)cc3Cl)[C@@H](COC(=O)c3ccc(Cl)cc3Cl)O2)c(=O)[nH]c1=O [5'-O-(2'',4''-Dichlorobenzoyl)-thymidine-3'-O-2'',4''-dichlorobenzoate (13)]
5 | 18.8 µM | 12.8 µM | COc1ccc(C(=O)OC[C@H]2O[C@@H](n3cc(C)c(=O)[nH]c3=O)C[C@@H]2O)cc1 [5'-O-(4''-Methoxybenzoyl)-thymidine (10)]
6 | 18.5 µM | 12.5 µM | Cc1ccc(C(=O)OC[C@H]2O[C@@H](n3cc(C)c(=O)[nH]c3=O)C[C@@H]2O)cc1 [5'-O-(4''-Methylbenzoyl)-thymidine (4)]
